Test results taken from paper PMC12669049, “Energy-transfer photoproximity labelling in live cells using an organic cofactor” (Nature Chemistry, 2025).
“And” between values parts separate entries of the source, which are not always exact repeats. Equal entries are not always repeated.

How the values were obtained:
[1] = Phenyl azide S3 conversion via HPLC
Method: 3.2 Photocatalyst Screening
3.2.1 Phenyl azide conversion via HPLC
To an 8 mL crimp neck vial with magnetic stirrer bar was added a solution of phenyl azide S3 (1 mM, 10 µL of 100 mM DMSO stock) and photocatalyst (PC, 0.1 mM, 10 µL of 10 mM DMSO stock) in PBS pH = 7.4 (1 mL). The vial was sealed and sparged with Ar for 10 min before being irradiated with a 450 nm light (40W, EvoluChem, PhotoRedOx Box) for 15 min. […]
trifluoromethylbenzoic acid as the internal standard (1 mM) and analysed using analytical HPLC (see Section 2.5 for further details). Conversions were calculated using standard calibration curve of phenyl azide S3 vs. internal standard and are represented as the average of duplicate runs.
Calibration curve of phenyl azide S3 vs. internal standard
(also on this page, place not known: Normalised Intensity (Substrate/Standard))

[2] = Stationary and time-resolved absorption and emission spectroscopy (photophysics); format: physicochemical
Text: (§1) Details of the stationary and time-resolved absorption and emission spectroscopy procedures used for the mechanistic studies are given in Supplementary Section 3.3.

[3] = Photocatalytic conversion of diazirine, analysis via 19F NMR
Method: To an 8 ml crimp neck vial with a magnetic stirrer bar was added a solution of diazirine (100 µM, 10 µl of 10 mM DMSO stock) and photocatalyst (10 µM, 10 µl of 1 mM DMSO stock) in PBS (pH = 7.4, 1 ml). The vial was sealed and sparged with Ar for 10 min before being irradiated with 450 nm light (30 W LED; EvoluChem, PhotoRedOx Box) for 15 min. The solution was then spiked with p-(trifluoromethyl)benzoic acid as the internal standard (100 µM, chemical shift (δ) = −61.35 ppm) and analysed via ^19F NMR to determine the conversion of diazirine (δ = −64.23 ppm) to the carbinol product (δ = −76.64 ppm)[17]. Conversions are represented as the average of duplicate runs.

[4] = cited from earlier work
HeLa cells = assay: Cell viability assay (WST-1); format: cell-based; conditions: WST-1, 24 h incubation, Extended Data Fig. 5a
[5] = Transient absorption of 4 with substrates (triplet energy / electron transfer); format: physicochemical; conditions: GSH 50 mM
Text: as §1

[6] = test system: reporter HEK293T cells expressing cytoplasmic HaloTag–SNAP-tag fusion protein; assay: Modified chloroalkane penetration assay (CAPA), HEK293T; format: in vitro ADME; conditions: 1 h pulse, flow cytometry, Extended Data Fig. 6b, representative data of two biological replicates
Method: (§2) CA–TMR-d12 and BG–SiR-d12 were prepared as described previously. HeLa or HEK293T cells were seeded onto 10 cm cell culture dishes and allowed to attach for 24 h under standard cell culture maintenance conditions. The culture medium was replaced with fresh DMEM (5 ml, high glucose) with 10% FCS without antibiotics followed by plasmid (pcDNA5-HaloTag-Pro30-SNAP-tag) transfection using Lipofectamine 3000 (Thermo) according to Supplementary Section 2.8. After 24 h, the transfected cells were trypsinized, seeded into 24-well cell culture plates (1 × 10^5 cells per well) and incubated again for 24 h. […] Cell pellets were resuspended in PBS (400 µl) and analysed via flow cytometry (FACS Fortessa). The mean fluorescence intensity (MFI) values in the TMR and Cy5 (SiR) channels of live cells were determined. […] Equation (2) below was used to determine the percentage fluorescence intensity:2 Fluorescenceintensity%=(photocatalyst−chloroalkaneMFITMR)−(photocatalystMFITMR)/(CA−NHBocMFITMR)−(photocatalystMFITMR)×100.

[7] = test system: reporter HeLa cells expressing cytoplasmic HaloTag–SNAP-tag fusion protein; assay: Modified chloroalkane penetration assay (CAPA), HeLa; format: in vitro ADME; conditions: modified pulse-chase CAPA, 1 h pulse in FluoroBrite DMEM, chase CA–TMR-d12 15 min, BG–SiR-d12 1 µM for normalisation, flow cytometry, Fig. 4f, three biological replicates (mean ± SD)
Method: as §2

[8] = PBS pH 7.4, S3 1 mM, photocatalyst 0.1 mM, 450 nm 15 min, HPLC calibration curve, average of duplicate runs
[9] = PBS pH 7.4, diazirine 100 µM, photocatalyst 10 µM, 450 nm LED 15 min, average of duplicate runs

O=c1c2ccccc2sc2ccccc12 [2a, thioxanthone]
Conversion of aryl azide S3 [1, 8]: 77% | λmax of first absorption band ([2]; Fig. 1a, footnote a (footnote text not shown; a = 1:1 DMSO/H2O in Supplementary Fig. 4)): 385 nm | λmax ([2]; Supplementary Fig. 4): 387 nm | Conversion of diazirine 1 [3, 9]: 71% and > 70% | Triplet energy (ET, E0–0,T1) [4]: 67.4 kcal/mol

CC(C)(C)c1ccnc(-c2cc(C(C)(C)C)ccn2)c1.F[P-](F)(F)(F)(F)F.Fc1c[c-]c(-c2ccc(C(F)(F)F)cn2)c(F)c1.Fc1c[c-]c(-c2ccc(C(F)(F)F)cn2)c(F)c1.[Ir+3] [3b, [Ir(dF(CF3)ppy)2(dtbbpy)]PF6]
λmax ([2]; Supplementary Fig. 4, 1:1 DMSO/H2O): 380 nm | Singlet oxygen quantum yield ΦΔ ([2]; in acetonitrile): 93% | Triplet energy (ET, E0–0,T1) [4]: 60.1 kcal/mol

O=C1OC2(c3ccccc31)c1cc(Br)c(O)c(Br)c1Oc1c2cc(Br)c(O)c1Br [EY, eosin Y]
Cytotoxicity (in words) (HeLa cells): do not induce cytotoxicity

N[C@@H](CCC(=O)N[C@@H](CS)C(=O)NCC(=O)O)C(=O)O [GSH, glutathione]
Quantum yield of electron transfer ΦeT to triplet state of 4 [5]: 73%

Cn1c2nc(=O)[nH]c(=O)c-2cc2ccccc21 [compound 4, deazaflavin]
Conversion of aryl azide S3 [1, 8]: 100% | Conversion of diazirine 1 ([3]; 1:1 DMSO/H2O, 450 nm 15 min): 85%

Cn1c2nc(=O)n(CC(=O)NCCOCCOCCCCCCCl)c(=O)c-2cc2ccccc21 [compound 15]
CP50 [6]: 2,063 nM | CP50 (treatment concentration where 50% of the HaloTags are labelled) [7]: 198 ± 79.2 nM

Ir[dFCF3CO2Hppy]2[diolbpy] [3a]
Conversion of aryl azide S3 [1, 8]: 84% | λmax ([2]; Supplementary Fig. 4): 380 nm | Cytotoxicity (in words) (HeLa cells): do not induce cytotoxicity | Triplet energy (ET, E0–0,T1) [4]: 60.1 kcal/mol

MeO-thioxanthone [2b]
Conversion of aryl azide S3 [1, 8]: 61% | Conversion of diazirine 1 [3, 9]: < 5%

Riboflavin tetraacetate [RTA]
Conversion of aryl azide S3 ([1]; pH 7.4): 69%

diMeO-alloxazine [S2]
Conversion of aryl azide S3 [1, 8]: 94% | λmax ([2]; Supplementary Fig. 4): 396 nm

diMeO-deazaflavin [S1]
Conversion of aryl azide S3 [1, 8]: 79% | λmax ([2]; Supplementary Fig. 4): 418 nm | Conversion of diazirine 1 [3, 9]: < 50% and 44%
